Measurements: US20060286624A1, “Method for identifying selective growth inhibitors” (priority 2003, published 2006)

Columns and labels:
[1] = test system: DH5 (sensitive strain) co-seeded with pKS-DH5 (resistant strain); experiment: Co-seeded agar plate assay (Assay Protocol A), DH5 sensitive / pKS-DH5 resistant strain; assay type: cell-based, Escherichia coli; settings: Run 6, FIG. 3; co-seeding ratio 500:1; 100 mg/mL, 10 μL in DMSO; 37° C., 12 to 18 hours
Experimental: (§1) Each of a pair of bacterial strains, one sensitive and one resistant to a particular antibacterial agent, was grown by inoculating 25 mL of LB broth (i.e., 10 g of tryptone, 5 g of yeast extract, and 10 g NaCl per liter of water) with 1 to 5 colonies in an Erlenmeyer flask, and then holding the mixture overnight at a temperature of 37° C. while agitating the mixture via rotary shaking (200 rpm). Each batch was allowed to cool to room temperature (about 25° C.). Following OD measurements at λ=600 nm to ensure that both strains have grown to similar densities (i.e., a variation of 10% or less), a sample from the batch of the “sensitive” strain was diluted 10-fold in LB growth medium, and a sample of the “resistant” strain was diluted 500-fold or more to provide a final ratio (i.e., co-seeding ratio) of 50 or more sensitive cells to 1 resistant cell. A 750 μL sample of each of the diluted strains was then mixed into 20 mL of molten agar/growth medium agar (melt temperature=48° C.) (KD Medical's Cat. No. BLF-7070) and poured into rectangular 8.5×12.5 cm Omnitray dishes (Nalge NUNC Intl. Cat No. 242811). Wells were cast by applying custom-made pins (about 3 mm in diameter and 5 mm deep; Nalge NUNC Intl.) into the surface of the molten mixture (48 or 96 pins arrayed over the 8.5×12.5 cm surface) and then allowing the mixture to harden to provide an assay plate. […]

[2] = test system: S-eEF2 (sensitive strain) co-seeded with HS-eEF2 (resistant strain); experiment: Co-seeded agar plate assay (Assay Protocol B), S-eEF2 sensitive / HS-eEF2 resistant yeast strain; assay type: cell-based, Saccharomyces cerevisiae; settings: co-seeding ratio 50:1, DMSO solution, overnight at 29° C.
Experimental: Assay Protocol B The S. cerevisiae yeast strains, S-eEF2 and HS-eEF2, were each grown overnight from a single colony in 5 mL YPAD (i.e., 1% yeast extract, 2% peptone, 0.004% adenine sulfate, and 2% glucose) in an Erlenmeyer flask at 29° C. with shaking on a roller drum. The sensitive strain S-eEF2 was diluted with additional YPAD to give a final absorbance at λ=600 nm of 0.01 (control =YPAD), and the resistant strain HS-eEF2 was diluted to an absorbance at λ=600 nm of 0.0002. Each strain (5 mL) was added to a glass test tube containing 25 mL of molten YPAD agar equilibrated at 50° C. The mixture was then stirred briefly and poured onto sterile disposable 86×128-mm plastic dishes (NUNC Cat. No. 242811). The dishes were cooled for 5 minutes at room temperature, dried in a hood, and then stored for no more than 2 days until ready for treatment with test substances. Test substances were dissolved in the appropriate solvent and a suitable portion of the solution was spotted on the co-seeded plates. The plates were incubated overnight at 29° C., and then inspected visually for the appearance of zones of growth and inhibition, and particularly for the appearance of resistant colonies capable of growing in the presence of the test substances.
The tests set forth in Table 2 were conducted in the manner described in Assay Protocol B.

[3] = test system: MRSA (sensitive strain) co-seeded with CRMRSA (resistant strain); experiment: Co-seeded agar plate assay (Assay Protocol A), MRSA sensitive / CRMRSA resistant strain; assay type: cell-based, Staphylococcus aureus; settings: co-seeding ratio 100:1, 10 μL in DMSO, 37° C., 12 to 18 hours
Experimental: as §1

[4] = test system: MSSA (sensitive strain) co-seeded with MRSA (resistant strain); experiment: Co-seeded agar plate assay (Assay Protocol A), MSSA sensitive / MRSA resistant strain; assay type: cell-based, Staphylococcus aureus; settings: co-seeding ratio 500:1, 10 μL in DMSO, 37° C., 12 to 18 hours
Experimental: Each of a pair of bacterial strains, one sensitive and one resistant to a particular antibacterial agent, was grown by inoculating 25 mL of LB broth (i.e., 10 g of tryptone, 5 g of yeast extract, and 10 g NaCl per liter of water) with 1 to 5 colonies in an Erlenmeyer flask, and then holding the mixture overnight at a temperature of 37° C. while agitating the mixture via rotary shaking (200 rpm). Each batch was allowed to cool to room temperature (about 25° C.). Following OD measurements at λ=600 nm to ensure that both strains have grown to similar densities (i.e., a variation of 10% or less), a sample from the batch of the “sensitive” strain was diluted 10-fold in LB growth medium, and a sample of the “resistant” strain was diluted 500-fold or more to provide a final ratio (i.e., co-seeding ratio) of 50 or more sensitive cells to 1 resistant cell. A 750 μL sample of each of the diluted strains was then mixed into 20 mL of molten agar/growth medium agar (melt temperature=48° C.) (KD Medical's Cat. No. BLF-7070) and poured into rectangular 8.5×12.5 cm Omnitray dishes (Nalge NUNC Intl. Cat No. 242811). Wells were cast by applying custom-made pins (about 3 mm in diameter and 5 mm deep; Nalge NUNC Intl.) into the surface of the molten mixture (48 or 96 pins arrayed over the 8.5×12.5 cm surface) and then allowing the mixture to harden to provide an assay plate. Test samples dissolved in DMSO were added to the wells, after which the assay plate was incubated at 37° C. for a time sufficient to allow visual detection of cell colonies (i.e., 12 to 18 hours). The plates were then examined for zones of growth and inhibition under ambient light.
The tests set forth in Table 1 were conducted in the manner described in Assay Protocol A, except that in the case of the streptomycin-resistant strain, the inoculated liquid growth medium also contained 25 ug/mL of streptomycin in order to ensure that resistance was not lost during growth.

[5] = test system: ATCC 9637 (sensitive strain) co-seeded with MB941 (resistant strain); experiment: Co-seeded agar plate assay (Assay Protocol A), ATCC 9637 sensitive / MB941 resistant strain; assay type: cell-based, E. coli; settings: co-seeding ratio 1000:1, 10 μL in DMSO, 37° C., 12 to 18 hours
Experimental: as §1

For `CC1(C)S[C@@H]2[C@H](NC(=O)[C@H](N)c3ccccc3)C(=O)N2[C@H]1C(=O)O` [ampicillin], the “zone of growth inhibition (appearance, resistant colonies)” value (“zone of growth inhibition” below) [1] was “isolated resistant colonies within a zone that otherwise exhibits no growth”.

For `CO[C@H]1[C@@H](O)[C@H](O)[C@H](OC[C@@]23C[C@@H]4[C@H](C)CC[C@H]4[C@@]4(C=O)CC2C=C(C(C)C)[C@@]34C(=O)O)O[C@@H]1C` [sordarin], the “zone of growth inhibition” value ([2]; Run 10, FIG. 5B, 2 μg spotted) was “zone of growth inhibition in which resistant colonies are present”.

With `CC(=O)O[C@@H]1C[C@]23C4=CC[C@@]5(C)[C@H](C(=O)O)[C@@](C)([C@H](C)C(C)C)CC[C@]5(C)[C@H]4CC[C@H]2[C@@](C)(COC3O)[C@H]1O[C@@H]1O[C@H](CO)[C@@H](O)[C@H](O)[C@H]1O` (stereo partly shown) [enfumafungin] the “zone of growth inhibition” value ([2]; Run 9, FIG. 5A, 0.2 μg spotted) was “visually clear zone exhibiting no growth of either the sensitive or the resistant strain”.

In the case of `O=C(O)c1cn(C2CC2)c2cc(N3CCNCC3)c(F)cc2c1=O` [ciproflaxin, ciprofloxacin], the “zone of growth inhibition” value ([3]; Run 4, FIG. 2A, 50 μg/mL) is reported as “clear zone of no growth”.

With `O=C(N[C@H](CO)[C@H](O)c1ccc([N+](=O)[O-])cc1)C(Cl)Cl` [chloramphenicol] the “zone of growth inhibition” value ([4]; Run 1, FIG. 1A, 100 μg/mL) was “visually contains no resistant colonies” and the “zone of growth inhibition” value ([3]; Run 5, FIG. 2B, 1 mg/mL) was “zone of no growth containing isolated colonies of resistant bacteria”.

In the case of `CN(C)[C@@H]1C(O)=C(C(N)=O)C(=O)[C@@]2(O)C(O)=C3C(=O)c4c(O)cccc4[C@@](C)(O)[C@H]3C[C@@H]12` [tetracylin, tetracyclin], the “zone of growth inhibition” value ([5]; Run 7, FIG. 4A, 1 mg/mL) is reported as “clear zone of no growth”.

For `CO[C@@]1(NC(=O)Cc2cccs2)C(=O)N2C(C(=O)O)=C(COC(N)=O)CS[C@@H]21` [cefoxitin], the “zone of growth inhibition” value ([4]; Run 3, FIG. 1C, 500 μg/mL) was “a multitude of resistant colonies throughout the inhibition zone”.

For `[H]/N=C(/N)N[C@H]1[C@H](O)[C@@H](O)[C@H](O[C@@H]2O[C@@H](C)[C@](O)(C=O)[C@H]2O[C@@H]2O[C@@H](CO)[C@H](O)[C@@H](O)[C@@H]2NC)[C@@H](N/C(N)=N\[H])[C@@H]1O` [streptomycin], the “zone of growth inhibition” value ([4]; Run 2, FIG. 1B, 1 mg/mL) was “a few colonies at or near the border of the inhibition zone” and the “zone of growth inhibition” value ([5]; Run 8, FIG. 4B, 500 μg/mL) was “zone of no growth containing isolated colonies of resistant bacteria”.
